The structures appear in SMILES notation. Calls of active or inactive are those of the source. No cut-off for these calls is given here.

19 compounds from ChEMBL document CHEMBL1150701, “A direct bioautographic tlc assay for compounds possessing antibacterial activity” (1987) can be followed below.

The subject of assay [1] is Escherichia coli. Put plainly: Antibacterial activity against Escherichia coli ATCC 25922 at 5 ug after 48 hrs by silica gel plate-based INT-formazan method. The assay is classed as functional, organism-based.
Assay [2] relates to Bacillus subtilis. The assay can be described thus: Antibacterial activity against Bacillus subtilis ATCC 6633 at 5 ug after 48 hrs by silica gel plate-based INT-formazan method. The format is functional, organism-based.
The subject of assay [3] is Bacillus subtilis. Put plainly: Antibacterial activity against Bacillus subtilis ATCC 6633 after 48 hrs by silica gel plate-based INT-formazan method. The format is functional.
Assay [4] deals with Escherichia coli. Put plainly: Antibacterial activity against Escherichia coli ATCC 25922 after 48 hrs by silica gel plate-based INT-formazan method. The assay is classed as functional.

As for `COc1cc([C@@H]2c3cc4c(cc3[C@H](O)[C@H]3COC(=O)[C@H]23)OCO4)cc(OC)c1OC`, the result in the assay with Escherichia coli [1] and in the assay with Bacillus subtilis [2] was Active.
Consider `COC(=O)[C@]12OC[C@]34[C@H]([C@@H](O)[C@@H]1O)[C@@]1(C)[C@H](O)C(=O)C=C(C)[C@@H]1C[C@H]3OC(=O)[C@H](OC(=O)CC(C)C)[C@@H]24`, for which the outcome with Escherichia coli [1] and in the assay on Bacillus subtilis [2] was inactive.
In the case of `OC[C@H]1O[C@@](CO)(O[C@H]2O[C@H](CO)[C@@H](O)[C@H](O)[C@H]2O)[C@@H](O)[C@@H]1O` [SUCROSE], the MIC in the assay on Bacillus subtilis [3] and with Escherichia coli [4] was more than 20 µg each time.
Turning to `COc1cc([C@@H]2c3cc4c(c(O)c3C[C@H]3COC(=O)[C@@H]32)OCO4)cc(OC)c1O`, the outcome with Escherichia coli [1] and with Bacillus subtilis [2] was Active.
Consider `CC1=CC(=O)[C@@H](O)[C@]2(C)[C@H]3[C@]4(O)OC[C@]35[C@H]([C@@H](C)[C@H]4O)[C@@H](O)C(=O)O[C@@H]5C[C@@H]12`, for which the result in the assay on Escherichia coli [1] and in the assay with Bacillus subtilis [2] was inactive.
Take `CCCCCCCCCCCCCCCC(=O)O` [PALMITIC ACID]: the MIC in the assay on Bacillus subtilis [3] and against Escherichia coli [4] was more than 20 µg in each case.
Take `CC(=O)O[C@H]1C(=O)O[C@@H]2C[C@H]3C(C)=CC(=O)[C@@H](O)[C@]3(C)[C@H]3[C@]4(O)OC[C@]32[C@@H]1[C@@H](C)[C@H]4O`: the result in the assay with Escherichia coli [1] and in the assay on Bacillus subtilis [2] was inactive.
`CC1(C)S[C@@H]2[C@H](NC(=O)COc3ccccc3)C(=O)N2[C@H]1C(=O)O` [PENICILLIN V]: the figures for the MIC in the assay with Bacillus subtilis [3] and against Escherichia coli [4] were 0.005 µg and more than 2 µg, respectively.
For `CC[C@@]1(O)C(=O)OCc2c1cc1n(c2=O)Cc2cc3c(OC)cccc3nc2-1`, the outcome in the assay on Escherichia coli [1] and in the assay with Bacillus subtilis [2] was inactive.
Regarding `COc1cc([C@@H]2c3cc4c(cc3C[C@H]3COC(=O)[C@@H]32)OCO4)cc(OC)c1O`, the result with Escherichia coli [1] and with Bacillus subtilis [2] was inactive.
In the case of `O=C(N[C@H](CO)[C@H](O)c1ccc([N+](=O)[O-])cc1)C(Cl)Cl` [CHLORAMPHENICOL], the results for the MIC against Bacillus subtilis [3] and in the assay with Escherichia coli [4] were 0.01 µg and 0.02 µg, respectively.
For the compound `O=c1c(O)c(-c2ccc(O)c(O)c2)oc2cc(O)cc(O)c12` [QUERCETIN], the MIC against Bacillus subtilis [3] and against Escherichia coli [4] was 5 µg in each case.
Take `COc1cc([C@@H]2c3cc4c(c(O)c3C[C@H]3COC(=O)[C@@H]32)OCO4)cc(OC)c1OC`: the outcome in the assay on Escherichia coli [1] and in the assay on Bacillus subtilis [2] was inactive.
`CC[C@@]1(O)C(=O)OCc2c1cc1n(c2=O)Cc2cc3cc(O)ccc3nc2-1`: the result in the assay on Escherichia coli [1] and in the assay with Bacillus subtilis [2] was inactive.
Consider `CC1=CC(=O)[C@@H](O)[C@]2(C)[C@H]3[C@@]4(O)OC[C@@]35[C@@H](C[C@@H]12)OC(=O)C[C@H]5[C@@H](C)[C@H]4O`, for which the outcome in the assay with Escherichia coli [1] and in the assay on Bacillus subtilis [2] was inactive.
With `CC[C@H](/C=C/[C@@H](C)[C@H]1CC[C@H]2[C@@H]3CC=C4C[C@@H](O)CC[C@]4(C)[C@H]3CC[C@]12C)C(C)C` [STIGMASTEROL], the MIC in the assay on Bacillus subtilis [3] and in the assay on Escherichia coli [4] was more than 20 µg throughout.
Regarding `CC[C@H](CC[C@@H](C)[C@H]1CC[C@H]2[C@@H]3CC=C4C[C@@H](O)CC[C@]4(C)[C@H]3CC[C@]12C)C(C)C` [BETA-SITOSTEROL], the MIC in the assay with Bacillus subtilis [3] and with Escherichia coli [4] was more than 20 µg in each case.
As to `O=C(O)/C=C/c1ccc(O)cc1` [COUMARIC ACID], the MIC against Bacillus subtilis [3] turned out to be 2.5 µg; against Escherichia coli [4], 5 µg.
`CC[C@@]1(O)C(=O)OCc2c1cc1n(c2=O)Cc2cc3ccccc3nc2-1`: the result in the assay with Escherichia coli [1] and in the assay with Bacillus subtilis [2] was inactive.
